Measured values as given in PubChem BioAssay (NCI).
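Assay format: 96-well plates, 48-hour exposure. GI50 is the concentration that inhibits growth by half. TGI marks complete inhibition of growth.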

How the values were obtained:
Test in all cases: NCI-60 cell line screen, 48 h
COLO 205 colon = test system: COLO 205 colon
HT29 colon = test system: HT29 colon
SN12C renal = test system: SN12C renal
SF-295 CNS = test system: SF-295 CNS
MOLT-4 leukemia = test system: MOLT-4 leukemia
KM12 colon = test system: KM12 colon
HCT-116 colon = test system: HCT-116 colon
MCF7 breast = test system: MCF7 breast
NCI-H522 lung = test system: NCI-H522 lung
PC-3 prostate = test system: PC-3 prostate

SMILES | TGI (COLO 205 colon) [µM] | TGI (HT29 colon) [µM] | TGI (SN12C renal) [µM] | TGI (SF-295 CNS) [µM] | TGI (MOLT-4 leukemia) [µM] | TGI (KM12 colon) [µM] | TGI (HCT-116 colon) [µM] | TGI (MCF7 breast) [µM] | TGI (NCI-H522 lung) [µM] | TGI (PC-3 prostate) [µM] | GI50 (COLO 205 colon) [µM] | GI50 (SN12C renal) [µM] | GI50 (PC-3 prostate) [µM] | GI50 (SF-295 CNS) [µM] | GI50 (MCF7 breast) [µM] | GI50 (MOLT-4 leukemia) [µM] | GI50 (NCI-H522 lung) [µM] | GI50 (KM12 colon) [µM] | GI50 (HCT-116 colon) [µM]
CC1CCN(c2cc(-c3cc4ccccc4o3)oc(=O)c2C#N)CC1 | > 100 | > 100 | > 100 | > 100 | > 100 | > 100 | > 100 |  |  |  |  |  |  |  |  |  |  |  | 
CC1=NN(C(=O)c2ccc(C)cc2)C(=O)C1N=Nc1ccccc1C(=O)O (stereo not drawn) | > 100 | > 100 | > 100 | > 100 | > 100 | > 100 | > 100 | > 100 | > 100 |  |  |  |  |  |  |  |  |  | 
O=C1Nc2ccccc2C1S(=O)(=O)c1ccccc1 (stereo not drawn) | > 100 | > 100 | > 100 | > 100 | > 100 | > 100 | > 100 |  | > 100 | > 100 |  |  |  |  |  |  |  |  | 
Nc1ncc(Sc2ccccc2C(=O)O)s1 | > 100 | > 100 | > 100 | > 100 | > 100 | > 100 | > 100 | > 100 |  | > 100 |  |  |  |  |  |  |  |  | 
C/C(=N\Nc1nc2ccccc2n1C)c1ccc2ccccc2n1 | > 100 | 18.3 | 16.2 | 10.5 |  | 43.5 | 7.03 | 27.4 | 19.6 |  |  |  |  |  |  |  |  |  | 
Clc1ccc(Cn2cc(/C=N/n3cnnc3)c3ccccc32)cc1 | > 100 | > 100 | > 100 | > 100 | > 100 | > 100 | > 100 | > 100 | > 100 | > 100 |  |  |  |  |  |  |  |  | 
COc1ccc2c(C(=O)c3c(C)n(CCN4CCOCC4)c4ccccc34)cccc2c1 | 43.4 | 64 | > 100 | 49 | > 100 | 68.2 | > 100 | 55.9 | 50.2 | 96.6 |  |  |  |  |  |  |  |  | 
CC(C)(CC1(C)NC(=O)NC1=O)OCc1ccccc1 (stereo not drawn) |  | > 100 | > 100 | > 100 |  | > 100 | > 100 | > 100 | > 100 | > 100 |  |  |  |  |  |  |  |  | 
COc1cccc2c1[C@H]1OC(=O)NC1CCCCC2 (stereo partly drawn) | > 100 | > 100 | > 100 | > 100 | > 100 | > 100 | > 100 |  | > 100 |  |  |  |  |  |  |  |  |  | 
C=C1C(=O)O[C@@H]2[C@H]1C[C@H](I)[C@@]1(C)CC[C@H](O1)[C@](C)(I)CCCC(C)[C@@H]2O (stereo partly drawn) | 4.95 | 4.61 | 17.7 | 31.8 | > 23.4 | 23.7 | 8.34 | 7.29 | 1.59 | 24.6 |  |  |  |  |  |  |  |  | 
COc1cccc(Nc2nc(NS(=O)(=O)c3cc(C)c(Cl)cc3S)n[nH]2)c1 | > 100 | > 100 | > 100 | > 100 | > 100 | > 100 | > 100 | > 100 | > 100 | > 100 |  |  |  |  |  |  |  |  | 
CCCCCC(/C=C/[C@@H]1[C@@H](C(O)CCCCCC(=O)OC)C(=O)C[C@H]1O[Si](C)(C)C(C)(C)C)OCOCCOC (stereo partly drawn) | 49.6 | 18.8 | 45.7 | 32.6 | 4.87 | 16.1 | 16.1 | > 47 | 14.5 | 27.4 |  |  |  |  |  |  |  |  | 
Cn1c(=O)n2n(c1=O)C(S(=O)c1ccccc1)C2 (stereo not drawn) | > 100 | > 100 | > 100 | > 100 | > 100 | > 100 | > 100 | > 100 | > 100 | > 100 |  |  |  |  |  |  |  |  | 
CCCCOCCOCCOC1=C(Cl)C(=O)c2c(O)ccc(O)c2C1=O | 0.756 | 1.25 | 2.96 | 3.13 | 0.1 | 3.6 | 1.41 |  |  | 3.19 |  |  |  |  |  |  |  |  | 
O[C@]12c3ccccc3C1CCCCC2N1CCOCC1 (stereo partly drawn) | > 100 | > 100 | > 100 | > 100 |  | > 100 | > 100 |  | > 100 |  |  |  |  |  |  |  |  |  | 
COc1cccc(/C=C2/S/C(=N/Nc3nc(C)c(C(C)=O)s3)NC2=O)c1O | 64.9 | > 100 | > 100 | > 100 |  | > 100 | > 100 | > 100 | 33.2 | 70.4 |  |  |  |  |  |  |  |  | 
Cc1ccc2oc3c(ccc(=O)n3C)c(=O)c2c1 | > 100 | > 100 | > 100 | > 100 |  | > 100 | > 100 | > 100 | > 100 | > 100 |  |  |  |  |  |  |  |  | 
CCOC(=O)C(C)(Cc1ccc(O)cn1)NC(=O)c1ccccc1 (stereo not drawn) | > 100 | > 100 |  | > 100 | > 100 | > 100 | > 100 |  | > 100 | > 100 |  |  |  |  |  |  |  |  | 
CC(=O)Oc1ccc2cc(Oc3ccccc3)c(=O)oc2c1 |  | > 100 | > 100 | > 100 |  | > 100 | > 100 | > 100 | 70.7 | > 100 |  |  |  |  |  |  |  |  | 
O=C(O)c1ccccc1CC(Cc1ccccc1)C(=O)O (stereo not drawn) | > 100 | > 100 | > 100 | > 100 | > 100 | > 100 | > 100 |  | > 100 | > 100 |  |  |  |  |  |  |  |  | 
CCOc1cc(/C=C/C(=O)CC(=O)/C=C/c2ccc(OC(=O)CNCCN(CC)CC)c(OCC)c2)ccc1OC(=O)CNCCN(CC)CC | 4.58 |  | 6.25 | 23.4 | 2.72 | 2.97 | 2.61 | 10.5 | 5.13 | 10.7 | 1.88 | 2 | 1.62 | 6.26 | 0.782 | 0.531 | 1.8 | 1.4 | 1.2
COC(=O)c1ccccc1/C=C1\Cc2ccc3ccccc3c2C1C (stereo not drawn) | > 100 |  | > 100 | > 100 | > 100 | > 100 | 46.1 | > 100 | > 100 | > 100 |  |  |  |  |  |  |  |  | 
